Results from US20060018951A1, “pH-responsive film for intravaginal delivery of a beneficial agent” (SRI International, priority 2003, published 2006).

Tested on: sperm
Test: Sperm motility assay
Assay type: cell-based, Sprague-Dawley rats
Experimental: Male Sprague-Dawley-rats, between the ages of 16-22 weeks, were used for this study. Following anesthesia, both testes were removed and the epididymides were collected, rinsed in warm Dulbecco's phosphate buffered saline (37° C.), and placed in a petri dish containing approximately 10 mL warm MHF-10 (37° C.). The epididymides were minced with scissors to release sperm. Pipette sperm suspension into a 50 mL plastic centrifuge tube with a screw cap. Dilute sperm with additional MHF-10 (approximately 5-12 mL) to form a milky suspension. The initial percentage of motile sperm must be at least 70% for a valid assay, and is determined by inoculating 200 μL sperm suspension into 0.8 mL MHF-10 and counting motile versus nonmotile sperm. After the test article concentrations equilibrated in a 36° to 37° C. incubator for at least 30 minutes, 200 μL aliquots of the sperm suspension were added to the 0.8 mL test compound concentrations, two at a time, at 5 minute intervals, beginning with the highest concentration and proceeding to in order to the lowest concentration, then ending with vehicle and positive controls. The final volume was 1 mL per test compound concentration. Motility was assessed using a microscope. 50-μL aliquots of the test concentration, containing sperm, were added to the wells of preheated glass slides and covered with preheated glass coverslips. Pipette tips, slides, and coverslips were maintained at 36-37° C. on a warming plate. Motility was assessed at the appropriate exposure times, generally 20 and 40 min after addition of sperm to the test concentration. The degrees of motility of≧200 sperm per concentration per time point were evaluated as either not motile (0), incipiently motile (quivering/pulsing/wiggling) (1), slowly motile (2), or rapidly motile (3). Criteria for a Valid Assay. […] Percent motility in the tables below is calculated as (Prog. Motile)/Total (Prog.+Incip.+Non)×100.

[1] = Experiment B, 1 min, film 49.1-50 mg, N9 amount not given, sperm count
[2] = Experiment B, 15 min, film 49.1-50 mg, N9 amount not given, sperm count
[3] = Experiment B, 30 min, film 49.1-50 mg, N9 amount not given, sperm count
[4] = Experiment C, 1 min, Nos 5-8: films 49.9-51.0 mg, N9 amount not given, sperm count
[5] = Experiment C, 15 min, Nos 5-8: films 49.9-51.0 mg, N9 amount not given, sperm count
[6] = Experiment C, 30 min, Nos 5-8: films 49.9-51.0 mg, N9 amount not given, sperm count
[7] = Experiment D, 1 min, films 50-50.09 mg, N9 amount not given, sperm count
[8] = Experiment D, 15 min, films 50-50.09 mg, N9 amount not given, sperm count
[9] = Experiment D, 30 min, films 50-50.09 mg, N9 amount not given, sperm count
[10] = first sperm study (T8), 1 min, films 4.3-19.8 mg, sperm count
[11] = first sperm study (T8), 15 min, films 4.3-19.8 mg, sperm count
[12] = first sperm study (T8), 30 min, films 4.3-19.8 mg, sperm count

Compound: nonylphenoxypolyethoxy ethanol [Formulation N-9]
- % Motility (Experiment B, 1 min, film 49.1-50 mg, N9 amount not given): 0%
- Incip.Mot [1]: 0
- Non-Mot [1]: 200
- Prog.-Mot [1]: 0
- % Motility (Experiment B, 15 min, film 49.1-50 mg, N9 amount not given): 0%
- Incip.Mot [2]: 0
- Non-Mot [2]: 200
- % Motility (Experiment B, 30 min, film 49.1-50 mg, N9 amount not given): 0%
- Incip.Mot [3]: 0
- Non-Mot [3]: 200
- Prog.Mot [3]: 0
- % Motility (Experiment C, 1 min, Nos 5-8: films 49.9-51.0 mg, N9 amount not given): 0%
- Incip.Mot [4]: 0
- Non-Mot [4]: 200
- Prog-Mot [4]: 0
- Total (Experiment C, 15 min, Nos 5-8: films 49.9-51.0 mg, N9 amount not given): 0
- Incip.Mot [5]: 0
- Mot [5]: 0
- Non-Mot [5]: 200
- Total (Experiment C, 30 min, Nos 5-8: films 49.9-51.0 mg, N9 amount not given): 0
- Incip.Mot [6]: 0
- Mot [6]: 0
- Non-Mot [6]: 200
- % Motility (Experiment D, 1 min, films 50-50.09 mg, N9 amount not given): 0%
- Incip.Mot [7]: 0
- Non-Mot [7]: 200
- Prog.Mot [7]: 0
- % Motility (Experiment D, 15 min, films 50-50.09 mg, N9 amount not given): 0%
- Incip.Mot [8]: 0
- Non-Mot [8]: 200
- Prog.Mot [8]: 0
- % Motility (Experiment D, 30 min, films 50-50.09 mg, N9 amount not given): 0%
- Incip.Mot [9]: 0
- Mot [9]: 0
- % Motility (first sperm study (T8), 1 min, films 4.3-19.8 mg): 0%
- Incip.Mot [10]: 0
- Non-Mot [10]: 100
- % Motility (first sperm study (T8), 15 min, films 4.3-19.8 mg): 0%
- Incip.Mot [11]: 0
- Non-Motile [11]: 100
- Prog-Motile [11]: 0
- % Motility (first sperm study (T8), 30 min, films 4.3-19.8 mg): 0%
- Incip.Mot [12]: 0
- Non-Motile [12]: 100
- Prog-Motile [12]: 0

Compound: CC(O)C(=O)O (centres unmarked) [Lactic Acid 4%, Lactic Acid]
- Non-Mot (Experiment B, 1 min, 100 μl solution, sperm count): 103
- Non-Mot (Experiment B, 1 min, 200 μl solution, sperm count): 200
